Data taken from ChEMBL document CHEMBL5241059, “Evolution in non-peptide α-helix mimetics on the road to effective protein-protein interaction modulators” (Eur J Med Chem, 2021).
Values belong to the molecule of their own block, whether it stands above or below them.

How the values were obtained:
[1] = target: T1, Amyloid-beta precursor protein (Homo sapiens, UniProt P05067); assay: Binding affinity to amyloid beta 40 (unknown origin) by ITC method
N2a [2] = assay: Cytotoxicity against mouse N2a cells; format: functional, cell-based
[3] = target: T2, Induced myeloid leukemia cell differentiation protein Mcl-1 (Homo sapiens, UniProt Q07820); assay: Binding affinity to fluorescent-labeled BH3 peptide from GST tagged MCL1 (172 to 320 residues) (unknown origin) expressed in Escherichia coli BL21 (DE3) incubated for 15 mins by fluorescence polarization-based competitive binding assay
T2 sequence (Q07820 whole entry, the tested form may be a part): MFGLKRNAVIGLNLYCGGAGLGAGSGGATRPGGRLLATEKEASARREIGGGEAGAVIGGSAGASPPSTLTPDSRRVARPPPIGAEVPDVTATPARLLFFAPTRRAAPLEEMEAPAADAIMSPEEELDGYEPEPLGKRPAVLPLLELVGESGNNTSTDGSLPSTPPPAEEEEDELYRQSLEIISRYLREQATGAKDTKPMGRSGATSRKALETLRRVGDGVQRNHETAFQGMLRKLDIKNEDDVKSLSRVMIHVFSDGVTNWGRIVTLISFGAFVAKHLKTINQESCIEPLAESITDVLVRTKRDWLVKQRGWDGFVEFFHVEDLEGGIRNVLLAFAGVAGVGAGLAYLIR

[4] = Binding affinity to RNA S protein (unknown origin) assessed as dissociation constant by ITC method; parameters: species or system Homo sapiens
[5] = target: Tumour suppressor p53/oncoprotein Mdm2 (Homo sapiens, UniProt Q00987); assay: Inhibition of HDM2-p53 (unknown origin) protein-protein interaction; format: protein assay
Chain of Tumour suppressor p53/oncoprotein Mdm2 (P04637 whole entry): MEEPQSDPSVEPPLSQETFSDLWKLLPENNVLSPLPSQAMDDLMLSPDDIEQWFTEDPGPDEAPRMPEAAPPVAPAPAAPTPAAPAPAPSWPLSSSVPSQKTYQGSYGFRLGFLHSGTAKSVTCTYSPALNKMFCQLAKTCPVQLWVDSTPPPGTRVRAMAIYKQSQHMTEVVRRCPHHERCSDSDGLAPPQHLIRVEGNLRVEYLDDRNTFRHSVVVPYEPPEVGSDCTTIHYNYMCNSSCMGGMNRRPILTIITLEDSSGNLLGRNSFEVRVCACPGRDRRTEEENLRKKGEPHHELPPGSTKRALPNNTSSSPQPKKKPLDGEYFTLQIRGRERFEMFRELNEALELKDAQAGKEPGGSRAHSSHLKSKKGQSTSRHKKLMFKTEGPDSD
Chain of Tumour suppressor p53/oncoprotein Mdm2 (Q00987 whole entry): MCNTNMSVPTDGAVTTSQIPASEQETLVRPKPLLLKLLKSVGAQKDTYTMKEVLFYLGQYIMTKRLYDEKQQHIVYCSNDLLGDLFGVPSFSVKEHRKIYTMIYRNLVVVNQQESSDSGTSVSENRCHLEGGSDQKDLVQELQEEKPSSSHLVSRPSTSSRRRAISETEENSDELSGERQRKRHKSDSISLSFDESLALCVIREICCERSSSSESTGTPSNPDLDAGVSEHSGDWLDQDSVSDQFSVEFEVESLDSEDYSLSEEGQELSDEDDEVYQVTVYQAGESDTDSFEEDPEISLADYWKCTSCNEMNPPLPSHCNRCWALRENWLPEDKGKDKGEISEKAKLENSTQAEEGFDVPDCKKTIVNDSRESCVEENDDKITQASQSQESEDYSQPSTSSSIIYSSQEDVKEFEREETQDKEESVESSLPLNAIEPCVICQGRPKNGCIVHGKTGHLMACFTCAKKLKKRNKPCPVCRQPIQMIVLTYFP

[6] = Inhibition of Mcl-1/NoxaB (unknown origin) protein-protein interaction; parameters: species or system Homo sapiens
[7] = target: T3, Islet amyloid polypeptide (Homo sapiens) (UniProt P10997); assay: Disruption of beta-fibrillation of IAPP (unknown origin) assessed as half life of protein
T3 sequence (whole entry): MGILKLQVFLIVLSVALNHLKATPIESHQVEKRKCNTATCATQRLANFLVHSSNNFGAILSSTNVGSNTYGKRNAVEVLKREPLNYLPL

Trypanothione reductase = Trypanothione reductase (Leishmania infantum, UniProt A4HSF7); assay: Inhibition of Leishmania infantum TryR oxidoreductase activity expressed in Escherichia coli BL21 (DE3) using TS2 and NADPH as substrate by incubated for 10 mins followed by substrate addition by DTNB-reagent based spectrophotometric method
Chain of Trypanothione reductase (A4HSF7 whole entry): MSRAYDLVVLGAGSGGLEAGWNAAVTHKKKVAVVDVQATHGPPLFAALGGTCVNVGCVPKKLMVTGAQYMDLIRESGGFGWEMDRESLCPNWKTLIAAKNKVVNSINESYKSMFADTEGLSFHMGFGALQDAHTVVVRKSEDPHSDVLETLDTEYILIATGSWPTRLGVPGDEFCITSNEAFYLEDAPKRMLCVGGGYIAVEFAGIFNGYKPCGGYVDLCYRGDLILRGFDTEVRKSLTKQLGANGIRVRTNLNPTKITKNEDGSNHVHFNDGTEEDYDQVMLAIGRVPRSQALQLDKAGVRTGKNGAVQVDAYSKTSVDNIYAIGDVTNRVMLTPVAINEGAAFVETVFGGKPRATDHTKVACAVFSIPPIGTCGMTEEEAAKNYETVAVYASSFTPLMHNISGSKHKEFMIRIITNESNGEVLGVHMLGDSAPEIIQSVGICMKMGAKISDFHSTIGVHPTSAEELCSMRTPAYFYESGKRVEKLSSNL

[8] = target: T2, Induced myeloid leukemia cell differentiation protein Mcl-1; assay: Inhibition of FITC-labeled BH3 peptide binding to MCL1 (unknown origin)
[9] = system: Human immunodeficiency virus 1; assay: Antiviral activity against HIV-1 pseudotyped virus expressing HXB-2 proteins infected in human TZM-bl cells assessed as inhibition of viral entry by luciferase based analysis; format: functional, organism-based; conditions: Human immunodeficiency virus 1, TZM-bl
[10] = Binding affinity to TAR RNA assessed as dissociation constant
[11] = target: T2, Induced myeloid leukemia cell differentiation protein Mcl-1; assay: Displacement of fluorescent-labeled BH3 peptide from recombinant MCL1 (unknown origin) by fluorescence polarization-based competitive binding assay
[12] = target: HIF1A/p300/CREB-binding protein (Homo sapiens, UniProt Q09472+Q16665+Q92793); assay: Binding affinity to hypoxia induced HIF-1 alpha/P300 CH1 domain (323 to 423 residues expressed in Escherichia coli (DE3)/CBP (unknown origin) interaction assessed as dissociation constant
MDA-MB-231 = assay: Antitumor activity against human MDA-MB-231 cells xenografted in mouse assessed reduction in tumor volume measured for 30 days relative to control; format: functional; parameters: scale not given: the % may be the effect or the level left; conditions: time 30 day
[13] = target: Histone acetyltransferase p300/Hypoxia-inducible factor 1-alpha (Homo sapiens, UniProt Q09472+Q16665); assay: Inhibition of hypoxia-induced HIF1alpha/P300 interaction (unknown origin) incubated for 30 mins for fluorescence anisotropy competition assay; format: protein-complex assay
SJSA-1 = assay: cells; conditions: Homo sapiens
[14] = system: Human immunodeficiency virus 1; assay: Antiviral activity against HIV1 RRE-Rev assessed as inhibition of viral replication; format: functional, organism-based
[15] = target: T2, Induced myeloid leukemia cell differentiation protein Mcl-1; assay: Displacement of fluorescein tagged Bak BH3 peptide from MCL-1 (172 to 327 residues) (unknown origin) by fluorescence polarization competition assay
[16] = target: Myc proto-oncogene protein (Homo sapiens, UniProt P01106); assay: Binding affinity to c-MYC (unknown origin) assessed as dissociation constant
Chain of Myc proto-oncogene protein (P01106 whole entry): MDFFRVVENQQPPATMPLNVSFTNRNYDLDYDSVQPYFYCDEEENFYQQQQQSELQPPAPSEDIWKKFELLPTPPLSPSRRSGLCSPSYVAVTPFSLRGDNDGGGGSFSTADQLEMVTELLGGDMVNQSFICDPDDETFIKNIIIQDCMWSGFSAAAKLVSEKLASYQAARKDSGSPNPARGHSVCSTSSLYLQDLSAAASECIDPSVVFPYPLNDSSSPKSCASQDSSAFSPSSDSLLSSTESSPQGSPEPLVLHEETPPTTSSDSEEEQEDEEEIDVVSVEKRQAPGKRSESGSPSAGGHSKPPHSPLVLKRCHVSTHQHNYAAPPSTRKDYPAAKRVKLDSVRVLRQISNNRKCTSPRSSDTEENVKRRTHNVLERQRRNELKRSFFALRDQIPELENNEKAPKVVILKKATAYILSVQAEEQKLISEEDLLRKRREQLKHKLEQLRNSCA

N2a [17] = assay: Effect on mouse N2a cells assessed as rescue of amyloid beta toxicity; format: functional, cell-based
[18] = target: T1, Amyloid-beta precursor protein; assay: Binding affinity to amyloid beta 42 (unknown origin) assessed as dissociation constant

T1 sequence (P05067 whole entry): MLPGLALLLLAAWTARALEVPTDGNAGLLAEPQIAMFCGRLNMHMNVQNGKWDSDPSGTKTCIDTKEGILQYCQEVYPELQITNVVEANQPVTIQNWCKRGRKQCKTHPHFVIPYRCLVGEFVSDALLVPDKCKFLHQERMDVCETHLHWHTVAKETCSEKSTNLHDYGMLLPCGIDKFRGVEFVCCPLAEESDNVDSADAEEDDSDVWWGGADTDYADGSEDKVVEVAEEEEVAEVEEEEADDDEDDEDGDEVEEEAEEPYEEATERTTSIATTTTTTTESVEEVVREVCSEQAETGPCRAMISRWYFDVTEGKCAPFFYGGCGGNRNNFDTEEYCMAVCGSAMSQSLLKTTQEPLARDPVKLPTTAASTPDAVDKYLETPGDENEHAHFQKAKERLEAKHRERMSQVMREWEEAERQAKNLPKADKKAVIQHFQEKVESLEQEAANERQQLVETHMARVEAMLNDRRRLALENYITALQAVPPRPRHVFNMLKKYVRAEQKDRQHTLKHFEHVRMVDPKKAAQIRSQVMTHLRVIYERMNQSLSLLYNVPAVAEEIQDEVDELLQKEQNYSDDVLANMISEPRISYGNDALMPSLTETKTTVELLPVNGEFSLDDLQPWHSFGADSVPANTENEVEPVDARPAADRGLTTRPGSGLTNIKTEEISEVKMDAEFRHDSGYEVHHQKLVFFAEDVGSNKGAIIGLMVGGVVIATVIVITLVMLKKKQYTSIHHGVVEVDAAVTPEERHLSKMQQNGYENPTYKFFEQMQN

SMILES: NCCCOc1nc(C(=O)O)ccc1NC(=O)c1ccc(NC(=O)c2ccc([N+](=O)[O-])c(OCc3ccccc3)n2)c(OCCCN)n1
- Kd [1]: 700 nM
- IC50 (N2a [2]): 1400 nM

- Ki [3]: 530 nM
SMILES: O=C(O)CCCNc1nc(NCCc2ccc(O)cc2)nc(N2CCN(c3nc(NCCC(=O)O)nc(Nc4ccc(Oc5ccccc5)cc4)n3)CC2Cc2ccccc2)n1 (stereo not drawn)

- Kd [4]: 1850 nM
SMILES: CC(C)Oc1cc(NC(=O)[C@H](Cc2ccccc2)NC(=O)c2ccc(N)c(OCc3ccc(Cl)cc3)c2)ccc1C(=O)NCC(=O)O

- IC50 [5]: 11.9 µM
- IC50 [6]: > 100 µM
SMILES: CC(C)Oc1cc(NC(=O)[C@H](Cc2ccccc2)NC(=O)c2ccc(N)c(OCc3ccccc3)c2)ccc1C(=O)NCC(=O)O

- T1/2 [7]: 23.1 h
SMILES: CCCc1c(NC(=O)Nc2sccc2CCC(=O)O)ccc2sc(N(CCC(=O)O)C(=O)OCC)nc12

- IC50 (Trypanothione reductase): 5.1 µM
SMILES: NCCNCc1cncn1-c1ccc(-c2nc(CCc3ccc4ccccc4c3)cs2)c(OCCN2CNCC2=O)c1

- IC50 [8]: 72 µM
SMILES: CC(C)(C)OC(=O)N(Cc1ccccc1)c1nc(NCC(=O)O)c2ncn(Cc3cccc4ccccc34)c2n1

SMILES: NCCCOc1nc(C(=O)O)ccc1NC(=O)c1ccc(NC(=O)c2ccc([N+](=O)[O-])c(OCCCN)n2)c(OCCCN)n1
- IC50 [9]: 25 µM
- Kd [10]: 4.1 µM

- Ki [11]: 2600 nM
SMILES: Oc1ccc(CCNc2nc3nc(n2)N2CCN(CC2Cc2ccccc2)c2nc(nc(Nc4ccc(Oc5ccccc5)cc4)n2)NCCOCCOCCOCCN3)cc1 (stereo not drawn)

SMILES: CC(C)C[C@@H]1NCCN([C@@H](CC(C)C)C(=O)N2CCN([C@@H](CCC(N)=O)C(N)=O)C(=O)[C@@H]2C)C1=O
- Kd [12]: 5.3 µM
- Activity (MDA-MB-231): 50%

- IC50 [13]: 9.2 µM
SMILES: CC(C)COc1cc(C(=O)Nc2ccc(C(=O)O)cc2OC(C)C)ccc1NC(=O)c1ccc([N+](=O)[O-])c(OCC(C)C)c1

SMILES: CC(C)[C@@H](CS(=O)(=O)C(C)C)N1C(=O)[C@@](C)(CC(=O)O)C[C@H](c2cccc(Cl)c2)[C@H]1c1ccc(Cl)cc1 [NAVTEMADLIN]
- IC50 (SJSA-1): 25 nM

- IC50 (Trypanothione reductase): 8.6 µM
SMILES: NCCNCc1cncn1-c1ccc(-c2nc(CCc3ccc(-c4ccccc4)cc3)cs2)c(OCCN2CNCC2=O)c1

SMILES: Cc1cc(-c2cc(CCN)ccc2CCN)c(C)cc1-c1cc(CCN)ccc1CCN
- IC50 [14]: 47 µM

- Ki [15]: 2900 nM
SMILES: Cc1cc(-c2ccc(C(=O)O)c(OCc3ccccc3)c2)cc(C)c1Cl

SMILES: COc1cc(CCN)c(-c2cc(C)c(-c3cc(CCN)c(OC)cc3CCN)cc2C)cc1CCN
- IC50 [14]: 14 µM

- Kd [16]: 10 µM
SMILES: CC(C)COc1cc(C(=O)O)ccc1NC(=O)c1ccc([N+](=O)[O-])c(OCc2ccc3ccccc3c2)c1

SMILES: CCC(C)Oc1cc(C(=O)Nc2cccc3c(OCC(=O)O)cc(C(=O)OC)nc23)nc2c(NC(=O)c3cc(OCC(=O)O)c4cccc(NC(=O)c5cc(OC(C)CC)c6cccc([N+](=O)[O-])c6n5)c4n3)cccc12 (stereo not drawn)
- IC50 (N2a [17]): 3000 nM
- Kd [18]: 2200 nM

- Ki [11]: 2600 nM
SMILES: Oc1ccc(CCNc2nc3nc(n2)N2CCN(CC2Cc2ccccc2)c2nc(nc(Nc4ccc(Oc5ccccc5)cc4)n2)NCCOCCOCCOCCOCCN3)cc1 (stereo not drawn)

- IC50 [5]: 9.3 µM
- IC50 [6]: 24 µM
SMILES: CCC(C)CN(C(=O)c1ccc(N(Cc2ccc3ccccc3c2)C(=O)c2ccc(NCC(C)C)cc2)cc1)c1ccc(C(=O)N[C@H](C(=O)O)[C@H](C)CC)cc1 (stereo partly drawn)

SMILES: CC(C)COc1nc(C(=O)Nc2ccc(C(=O)Nc3ccc(C(=O)Nc4ccc(C(=O)O)nc4OCC(=O)O)nc3OCC(=O)O)nc2OCc2ccccc2)ccc1[N+](=O)[O-]
- IC50 (N2a [2]): 2500 nM

- IC50 [5]: 15 µM
SMILES: CC(C)C[C@H](NC(=O)c1ccc(NC(=O)[C@@H](N)Cc2ccccc2)c(OCCc2c[nH]c3ccccc23)c1)C(=O)O
